“Also recorded” adds a separate entry of the source.

The subject of assay [1] is SH-SY5Y (neuroblastoma cell line). In words: RNAseq global gene expression in differentiated SH-SY5Y cells. It is filed as cell-based, human. As to the method: To determine the cellular response to SCA-744 (Cat. No. 55523-250 MG Sigma-Aldrich), the global changes in gene expression upon treatment of human in vitro cultured cells, SH-SY5Y (neuroblastoma cell line: SH-SY5Y-ATCC-CRL-2266) were analysed by RNAseq analysis. SH-SY5Y were cells differentiated with retinoic acid and Phorbol-12-Myristate-13-Acetate (Presgraves et al. Experimental Neurology 2004, 190(1), pp. 157-170). Cell cultures were treated for 24 hours with 500 μM of SCA-744 or vehicle (DPBS). Total RNA was isolated to prepare libraries using the Lexogen SENSE mRNA kit and sequenced using a HiSeq2500 (Illumina) running in 50 bp single-read modes using sequencing chemistry v4. Differentially expressed genes (DEGs) were identified by applying the statistical tests of DESeq (Anders & Huber, Genome biology 2010, 11(10), p. R106), and edgeR (Robinson et al. Bioinformatics 2009, 26(1), pp. 139-140.) packages. The comparison was made with Homo sapiens identifiers.

In a further assay the test system is aged mice. In words: Lung lysate cytokines in aged mice (animal model of ageing). It counts as in vivo. As to conditions: 30 mg/kg i.p., 2 or 3 days intervals for 2 weeks. As to the method: In a second set of experiments, the anti-inflammatory effect of SCA-744 was tested in vivo, in an animal model of ageing. It is well established that the ageing process is associated with low-grade inflammation. Mice older than 18 months show many characteristics of aged humans and are considered as a relevant model of human ageing. […] After treatment of aged mice (5 mice/group) with SCA-744 for 2 weeks (at 2 or 3 days intervals at 30 mg/kg dose, i.p.), lungs of the mice were harvested and lysates were prepared. Cytokine levels were determined by LEGENDplex™ Mouse Inflammation Panel assay from BioLegend. […] Importantly, the anti-inflammatory cytokine IL-10 was not affected by SCA-744.

Another assay relates to C57BL/6J mice. In words: LPS-induced acute lung inflammation model: respiratory function (plethysmography). It is filed as in vivo. As to conditions: 100 μg LPS intratracheal, measured 24 h after; SCA-744 60 mg/kg i.p. 4 doses; dexamethasone 5 mg/kg ip. 2 doses. As to the method:
Acute lung inflammation was induced by intratracheal administration of 100 μg LPS (Escherichia coli O111:B4; Sigma Aldrich, St. Louis, MO, USA) dissolved in 60 μl sterile phosphate buffered saline (PBS) under ketamine (120 mg/kg ip.; Calypsol, Gedeon Richter Plc., Budapest, Hungary) and xylazine (6 mg/kg ip.; Sedaxylan, Eurovet Animal Health B.V., Bladel, Netherlands) anaesthesia. 24 h after administration, respiratory function parameters were assessed, and lung samples were harvested for histopathological evaluation.
SCA-744 (60 mg/kg) and its vehicle were injected intraperitoneally (i.p.), 24 h, 12 h, 20 min before and 12 h after intratracheal administration of LPS. […] 24 h and 20 min before LPS treatment. Respiratory function measurement was performed 24 h after LPS administration
Buxco FinePoint Non-invasive Airway Mechanics (NAM) double chamber plethysmography (DSI Harvard Bioscience Inc.) was used to monitor ventilatory and bronchoconstriction parameters in awake, restrained animals without the use of anesthesia. The plethysmograph measures the nasal and thoracic flows independently. […] After 10 minutes of acclimatization period baseline pulmonary functions were assessed, such as the frequency, tidal volume, minute ventilation, expiratory/inspiratory time, peak expiratory/inspiratory flow, and specific airway resistance, a measure of bronchoconstriction.

[2] abbreviates: 500 μM, 24 hours, differentiated SH-SY5Y.

Turning to `O=S(=O)(O)c1cc2c(O)c(c1)Cc1cc(S(=O)(=O)O)cc(c1O)Cc1cc(S(=O)(=O)O)cc(c1O)Cc1cc(S(=O)(=O)O)cc(c1O)C2` [SCA-744, 4-sulfocalix[4]arene], the “genes for LDLR, INSIG1 and DHCR24/Seladin-1” value in assay [1] is listed as “found to be modulated”. Besides, in assay [1] (setting [2]), the “genes involved in inflammation, anti-oxidative, anti-ageing response and lipid metabolism (RNAseq)” value is reported as “differentially regulated”; the “mRNA expression of anti-oxidative genes CHAC1, NQO1, SLC7A11 (RNASeq)” value was “significant up-regulation”; the “mRNA expression of key genes involved in pro-inflammatory response” value is reported as “down regulates key genes involved in pro-inflammatory response”. In the assay on aged mice, the “IL-6, TNF-α and lipocalin (LCN2) in lung lysates” value was “Significantly decreased amounts”; the “anti-inflammatory cytokine IL-10 in lung lysates” value is given as “not affected”. The “respiratory function parameters (fBPM, FRC, Te, Rpef, Ti) versus control animals” value with C57BL/6J mice was “significantly improved; also recorded: did not induce statistically significant alterations”.

Source of the values: patent US12714682B2, “Calixarene compounds and uses thereof” (UNIVERSITÄT WIEN, priority 2019, dated 2026).
